Structures are written as SMILES. Bounds are passed on as bounds.

The target in experiment [1] is T1, CD73 (Homo sapiens (Human), UniProt P21589). Description: MDA-MB-231 Cell Based CD73 Activity Assay (DMEM). The note with it: MDA-MB-231-GFP cells, DMEM medium with 10% human plasma, 200 uM AMP.
In experiment [2] the target is T1, CD73. The experiment is classed as biochemical. As to conditions: 1 mM NaH2PO4 in enzyme buffer, CD73 0.3 nM, AMP 15 uM.

T1 sequence (P21589 27-574): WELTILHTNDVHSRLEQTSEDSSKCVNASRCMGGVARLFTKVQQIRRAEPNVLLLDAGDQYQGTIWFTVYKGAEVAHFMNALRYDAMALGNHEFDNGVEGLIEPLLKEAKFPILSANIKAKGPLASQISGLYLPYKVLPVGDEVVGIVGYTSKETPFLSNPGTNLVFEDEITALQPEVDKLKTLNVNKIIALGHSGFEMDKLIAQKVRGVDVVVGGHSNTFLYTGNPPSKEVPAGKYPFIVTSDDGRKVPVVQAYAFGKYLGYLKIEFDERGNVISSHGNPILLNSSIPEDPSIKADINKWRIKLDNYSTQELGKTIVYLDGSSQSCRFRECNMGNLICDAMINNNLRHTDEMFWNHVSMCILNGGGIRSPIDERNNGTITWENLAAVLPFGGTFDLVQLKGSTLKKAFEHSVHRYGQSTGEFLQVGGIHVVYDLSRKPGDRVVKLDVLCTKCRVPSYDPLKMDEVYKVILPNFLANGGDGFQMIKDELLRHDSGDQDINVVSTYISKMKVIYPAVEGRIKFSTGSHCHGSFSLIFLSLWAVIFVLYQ

As a reminder, the EC50 is the concentration giving half of the maximal effect. Low values mean a more potent agent, high ones a less potent agent. One may read the IC50 as the concentration that inhibits the measured activity by half. A higher IC50 goes with weaker potency. Consider `O=c1[nH]cc(-c2cc(NCCc3ccc(Cl)cc3)c3nccn3n2)c(=O)[nH]1` [Example 497, 5-(8-((4-chlorophenethyl)amino)imidazo[1,2-b]pyridazin-6-yl)pyrimidine-2,4(1H,3H)-dione], for which, in experiment [1], the midpoint of the response, the EC50, lay at 569 nM. This compound also yielded an IC50 in experiment [2] of 64.5 nM.
The like results for `O=c1[nH]cc(-c2cc(NCC(F)(F)c3ccccc3)c3nccn3n2)c(=O)[nH]1` [Example 498, 5-(8-((2,2-difluoro-2-phenylethyl)amino)imidazo[1,2-b]pyridazin-6-yl)pyrimidine-2,4(1H,3H)-dione] were, in that order, 260 nM and 50.7 nM.
In turn, `C[C@H](CNc1cc(-c2c[nH]c(=O)[nH]c2=O)nn2ccnc12)c1ccccc1` [Example 499, (S)-5-(8-((2-phenylpropyl)amino)imidazo[1,2-b]pyridazin-6-yl)pyrimidine-2,4(1H,3H)-dione] showed an EC50 in experiment [1] of 501 nM. Moreover, in experiment [2], the IC50 was 163 nM.
The like results for `C[C@@H](CNc1cc(-c2c[nH]c(=O)[nH]c2=O)nn2ccnc12)c1ccccc1` [Example 500, (R)-5-(8-((2-phenylpropyl)amino)imidazo[1,2-b]pyridazin-6-yl)pyrimidine-2,4(1H,3H)-dione] were, in that order, 457 nM and 108 nM.
Consider `O=c1[nH]cc(-c2cc(N3CC(F)(F)C4(CNC4)C3)c3nccn3n2)c(=O)[nH]1` [Example 501, 5-(8-(8,8-difluoro-2,6-diazaspiro[3.4]octan-6-yl)imidazo[1,2-b]pyridazin-6-yl)pyrimidine-2,4(1H,3H)-dione], for which, in experiment [1], the EC50 was found to be 108 nM. For the same compound, the midpoint of inhibition in experiment [2], the IC50, lay at 20.9 nM.
On the same counts, the results for `O=c1[nH]cc(-c2cc(N3CC(F)(F)C4(CN(Cc5cccc(F)c5)C4)C3)c3nccn3n2)c(=O)[nH]1` [Example 502, 5-(8-(8,8-difluoro-2-(3-fluorobenzyl)-2,6-diazaspiro[3.4]octan-6-yl)imidazo[1,2-b]pyridazin-6-yl)pyrimidine-2,4(1H,3H)-dione] are 44.4 nM and 9.06 nM.
With `CC(=O)N1CC2(C1)CN(c1cc(-c3c[nH]c(=O)[nH]c3=O)nn3ccnc13)CC2(F)F` [Example 503, 5-(8-(2-acetyl-8,8-difluoro-2,6-diazaspiro[3.4]octan-6-yl)imidazo[1,2-b]pyridazin-6-yl)pyrimidine-2,4(1H,3H)-dione], the midpoint of the response in experiment [1], the EC50, lay at 5.47 nM. This compound returned an IC50 in experiment [2] of 5.22 nM.
In experiment [1], `COC(=O)N1CC2(C1)CN(c1cc(-c3c[nH]c(=O)[nH]c3=O)nn3ccnc13)CC2(F)F` [Example 504, Methyl 6-(6-(2,4-dioxo-1,2,3,4-tetrahydropyrimidin-5-yl)imidazo[1,2-b]pyridazin-8-yl)-8,8-difluoro-2,6-diazaspiro[3.4]octane-2-carboxylate] yielded a concentration for a half-maximal effect (EC50) of 5.62 nM. The compound further had an IC50 in experiment [2] of 6.78 nM.
For `O=C(OCc1ccccc1)N1CC2(C1)CN(c1cc(-c3c[nH]c(=O)[nH]c3=O)nn3ccnc13)CC2(F)F` [Example 505, benzyl 6-(6-(2,4-dioxo-1,2,3,4-tetrahydropyrimidin-5-yl)imidazo[1,2-b]pyridazin-8-yl)-8,8-difluoro-2,6-diazaspiro[3.4]octane-2-carboxylate], a half-maximal effect in experiment [1] (EC50) was put at 10.1 nM. The compound also registered an IC50 in experiment [2] of 5.61 nM.
As to `O=C(OCC(F)(F)F)N1CC2(C1)CN(c1cc(-c3c[nH]c(=O)[nH]c3=O)nn3ccnc13)CC2(F)F` [Example 506, 2,2,2-trifluoroethyl 6-(6-(2,4-dioxo-1,2,3,4-tetrahydropyrimidin-5-yl)imidazo[1,2-b]pyridazin-8-yl)-8,8-difluoro-2,6-diazaspiro[3.4]octane-2-carboxylate], in experiment [1], the EC50 came out at 8.67 nM. This compound also displayed an IC50 in experiment [2] of 8.82 nM.
Turning to `O=c1[nH]cc(-c2cc(N3CC(F)(F)C4(CN(CC(F)F)C4)C3)c3nccn3n2)c(=O)[nH]1` [Example 507, 5-(8-(2-(2,2-difluoroethyl)-8,8-difluoro-2,6-diazaspiro[3.4]octan-6-yl)imidazo[1,2-b]pyridazin-6-yl)pyrimidine-2,4(1H,3H)-dione], a half-maximal effect in experiment [1] (EC50) was put at 19.7 nM. Besides, in experiment [2], the IC50 came out at 9.83 nM.
In turn, `O=c1[nH]cc(-c2cc(N3CC(F)(F)C4(CN(CC(F)(F)F)C4)C3)c3nccn3n2)c(=O)[nH]1` [Example 508, 5-(8-(8,8-difluoro-2-(2,2,2-trifluoroethyl)-2,6-diazaspiro[3.4]octan-6-yl)imidazo[1,2-b]pyridazin-6-yl)pyrimidine-2,4(1H,3H)-dione] showed an EC50 in experiment [1] of 29 nM. This compound also gave an IC50 in experiment [2] of 15 nM.
In turn, `O=c1[nH]cc(-c2cc(-c3cnn(C(F)F)c3)c3nccn3n2)c(=O)[nH]1` [Example 509, 5-(8-(1-(difluoromethyl)-1H-pyrazol-4-yl)imidazo[1,2-b]pyridazin-6-yl)pyrimidine-2,4(1H,3H)-dione] gave an EC50 in experiment [1] of 90.1 nM. This compound yielded an IC50 in experiment [2] of 49.5 nM.
On the same counts, the results for `COCCn1cc(-c2cc(-c3c[nH]c(=O)[nH]c3=O)nn3ccnc23)cn1` [Example 510, 5-(8-(1-(2-methoxyethyl)-1H-pyrazol-4-yl)imidazo[1,2-b]pyridazin-6-yl)pyrimidine-2,4(1H,3H)-dione] are 382 nM and 246 nM.
On the same counts, the results for `O=c1[nH]cc(-c2cc(-c3cnn(CCN4CCOCC4)c3)c3nccn3n2)c(=O)[nH]1` [Example 511, 5-(8-(1-(2-morpholinoethyl)-1H-pyrazol-4-yl)imidazo[1,2-b]pyridazin-6-yl)pyrimidine-2,4(1H,3H)-dione] are 431 nM and more than 250 nM.
On the same counts, the results for `Cn1ccc(-c2cc(-c3c[nH]c(=O)[nH]c3=O)nn3ccnc23)n1` [Example 512, 5-(8-(1-methyl-1H-pyrazol-3-yl)imidazo[1,2-b]pyridazin-6-yl)pyrimidine-2,4(1H,3H)-dione] are 1140 nM and more than 250 nM.
On to `CC1(C)CC(=O)N(c2cc(-c3c[nH]c(=O)[nH]c3=O)nn3ccnc23)C1` [Example 513, 5-(8-(4,4-dimethyl-2-oxopyrrolidin-1-yl)imidazo[1,2-b]pyridazin-6-yl)pyrimidine-2,4(1H,3H)-dione], for which the EC50 in experiment [1] stood at 934 nM. This compound also had an IC50 in experiment [2] of more than 250 nM.
Regarding `CC1(C)CN(c2cc(-c3c[nH]c(=O)[nH]c3=O)nn3ccnc23)C(=O)O1` [Example 514, 5-(8-(5,5-dimethyl-2-oxooxazolidin-3-yl)imidazo[1,2-b]pyridazin-6-yl)pyrimidine-2,4(1H,3H)-dione], in experiment [1], the half-maximal effective concentration (EC50) came to 269 nM. Also, in experiment [2], the half-inhibitory concentration (IC50) was 212 nM.
The like results for `CC1(C)CN(c2cc(-c3c[nH]c(=O)[nH]c3=O)nn3c(Cl)c(Cl)nc23)CC1(F)F` [Example 515, 5-(2,3-dichloro-8-(3,3-difluoro-4,4-dimethylpyrrolidin1-yl)imidazo[1,2-b]pyridazin-6-yl)pyrimidine-2,4(1H,3H)-dione] were, in that order, 228 nM and 1.72 nM.
The like results for `C[C@H]1CN(c2cc(-c3c[nH]c(=O)[nH]c3=O)nn3ccnc23)CC1(F)F` [Example 516, (S)-5-(8-(3,3-difluoro-4-methylpyrrolidin-1-yl)imidazo[1,2-b]pyridazin-6-yl)pyrimidine-2,4(1H,3H)-dione] were, in that order, 12.8 nM and 3.17 nM.
In experiment [1], `C[C@@H]1CN(c2cc(-c3c[nH]c(=O)[nH]c3=O)nn3ccnc23)CC1(F)F` [Example 517, (R)-5-(8-(3,3-difluoro-4-methylpyrrolidin-1-yl)imidazo[1,2-b]pyridazin-6-yl)pyrimidine-2,4(1H,3H)-dione] displayed an EC50 of 21.4 nM. This compound yielded an IC50 in experiment [2] of 5.23 nM.
The like results for `C[C@H]1CN(c2cc(-c3c[nH]c(=O)[nH]c3=O)nn3c(F)cnc23)CC1(F)F` [Example 518, (S)-5-(8-(3,3-difluoro-4-methylpyrrolidin-1-yl)-3-fluoroimidazo[1,2-b]pyridazin-6-yl)pyrimidine-2,4(1H,3H)-dione] were, in that order, 19.6 nM and 5.5 nM.
The like results for `C[C@@H]1CN(c2cc(-c3c[nH]c(=O)[nH]c3=O)nn3c(F)cnc23)CC1(F)F` [Example 519, (R)-5-(8-(3,3-difluoro-4-methylpyrrolidin-1-yl)-3-fluoroimidazo[1,2-b]pyridazin-6-yl)pyrimidine-2,4(1H,3H)-dione] were, in that order, 18.3 nM and 6.58 nM.
In experiment [1], `C[C@H]1CN(c2cc(-c3c[nH]c(=O)[nH]c3=O)nn3c(Cl)cnc23)CC1(F)F` [Example 520, (S)-5-(3-chloro-8-(3,3-difluoro-4-methylpyrrolidin-1-yl)imidazo[1,2-b]pyridazin-6-yl)pyrimidine-2,4(1H,3H)-dione] registered an EC50 of 421 nM. In experiment [2], this compound had a half-maximal inhibitory concentration (IC50) of 43.8 nM.
The like results for `C[C@@H]1CN(c2cc(-c3c[nH]c(=O)[nH]c3=O)nn3c(Cl)cnc23)CC1(F)F` [Example 521, (R)-5-(3-chloro-8-(3,3-difluoro-4-methylpyrrolidin-1-yl)imidazo[1,2-b]pyridazin-6-yl)pyrimidine-2,4(1H,3H)-dione] were, in that order, 223 nM and 33.3 nM.
The compound `CC1(C)CN(c2cc(-c3c[nH]c(=O)[nH]c3=O)nn3c(Cl)cnc23)CC1(F)F` [Example 522, 5-(3-chloro-8-(3,3-difluoro-4,4-dimethylpyrrolidin-1-yl)imidazo[1,2-b]pyridazin-6-yl)pyrimidine-2,4(1H,3H)-dione] came in with an EC50 in experiment [1] of 23.6 nM. In experiment [2], this compound returned an IC50 of 1.26 nM.
On the same counts, the results for `O=c1[nH]cc(-c2cc(N3CC(Oc4ccc(C(F)(F)F)cn4)C(F)(F)C3)c3nccn3n2)c(=O)[nH]1` (centres unmarked) [Example 523, 5-(8-(3,3-difluoro-4-((5-(trifluoromethyl)pyridin-2-yl)oxy)pyrrolidin-1-yl)imidazo[1,2-b]pyridazin-6-yl)pyrimidine-2,4(1H,3H)-dione] are 3.96 nM and 1.92 nM.
Take `O=c1[nH]cc(-c2cc(N3CC(OCC(F)F)C(F)(F)C3)c3nccn3n2)c(=O)[nH]1` (centres unmarked) [Example 524, 5-(8-(4-(2,2-difluoroethoxy)-3,3-difluoropyrrolidin-1-yl)imidazo[1,2-b]pyridazin-6-yl)pyrimidine-2,4(1H,3H)-dione]: in experiment [1], the EC50 worked out at 11 nM. Besides, the IC50 in experiment [2] is 3.75 nM.

For the origin of these results see patent publication US20240043427A1 (Gilead Sciences, Inc., priority 2020, published 2024).
